This note sets out measurements from patent publication US11220534B2, “Treatment of neurological diseases” (Lancaster University Business Enterprises Limited, priority 2016, dated 2022).

Assay type in all cases: in vivo
In one experiment the test system is C57BL/6 mice given MPTP. Briefly: Rotarod motor control test in the MPTP Parkinson mouse model. Particulars: 10 nmol/kg i.p. once daily for 2 weeks, FIG. 3, N=6 per group. From the text: A standard model to induce Parkinson like symptoms in mice is the injection of the chemical (MPTP) (Li et al., 2009). This chemical impairs or kills neurons in the brain that produce dopamine. The mice develop motor impairments, and the dopaminergic neurons in the brain are reduced in numbers and function. The enzyme tyrosine hydroxylase (TH) is required to synthesise dopamine. A loss of TH signifies a loss of dopamine production (Harkavyi et al., 2008).
Adult male C57BL/6 mice were given the dopaminergic toxin MPTP (20 mg/kg in 0.1 mL of PBS i.p. at 2-h intervals of 4 doses MPTP; Sigma) or vehicle (PBS) for one day. This treatment selectively affects dopaminergic neurons and induces Parkinson-like symptoms in mice.
The dose of peptide tested was 10 nmol/kg body weight. The peptides were administered by a once-daily intraperitoneal injection for 2 weeks. Saline injections were administered as a control. Six animals per group were injected with a peptide or a saline control.
The rotarod consists of a rotating pole that accelerates over time. Mice are placed on the rod, and motor skills are tested by accelerating the rotation. As the rotation increases, animals lose grip and fall on a cushion located below the rod. […] Each animal's endurance time was recorded, and the average was calculated. Data were analysed using a one-way ANOVA with post-hoc Bonferroni tests.

In the next experiment the test system is APP/PS1 mice. Nature of the experiment: Immunostaining for phosphorylated tau protein in the hippocampus. Particulars: APP/PS1 mice vs APP/PS1-saline; FIG. 10; N=4 per group. An excerpt: Materials and methods in Example 2 are the same as Example 1 except when stated. Reagents used in Example 2 only include antibodies to p-PI3Kp85, PI3Kp85, p-Akt (ser473), Akt, p-GSK3β ([…]), and GSK3β from Abcam, Inc. Cambridge, UK. The antibody to p-tau (AT8) from Thermo Scientific USA. Mouse Anti-β-actin, Anti-Rabbit IgG, Anti-mouse IgG, CY3-Anti-mouse IgG, RIPA Lysate, BCA Protein Assay Kit, DAPI staining solution and Anti-fluorescence decay agent from Boster (Wuhan, China). After in vivo hippocampal L-LTP recording, the mice were anesthetized with chloral hydrate (0.007 ml/g) by intraperitoneal injection and then the brain tissue was fixed with paraformaldehyde for 24 hours, after that the tissue was transferred to 30% sucrose solution for dehydration. The brain tissue was harvested, frozen in -80° C., and then sliced at a thickness of 30 μm, put the frozen section in PBS, blocked with normal goat serum (Solarbio, Beijing, China), followed by adding the primary antibody, second antibody and DAPI. Phosphorylated tau protein was observed by confocal laser scanning microscopy.

Experiment [1] concerns PI3K/AKT/GSK3β signalling pathway. Briefly: Western blotting for hippocampal levels of PI3K/AKT/GSK3β. The settings on record: APP/PS1 mice; FIG. 11; N=6 per group. From the text: Materials and methods in Example 2 are the same as Example 1 except when stated. Reagents used in Example 2 only include antibodies to p-PI3Kp85, PI3Kp85, p-Akt (ser473), Akt, p-GSK3β ([…]), and GSK3β from Abcam, Inc. Cambridge, UK. The antibody to p-tau (AT8) from Thermo Scientific USA. Mouse Anti-β-actin, Anti-Rabbit IgG, Anti-mouse IgG, CY3-Anti-mouse IgG, RIPA Lysate, BCA Protein Assay Kit, DAPI staining solution and Anti-fluorescence decay agent from Boster (Wuhan, China). The hippocampi of mouse were dissected and homogenized in tissue protein extraction reagent, and protein concentration was measured using BCA Protein Assay Kit. A total of 50 μg of protein was used from each sample. Sample proteins were separated on 12% SDS-polyacrylamide gels. After that, the proteins were transferred onto PVDF membranes and nonspecific binding was blocked with 5% BSA. A primary antibody was used to incubate the membranes overnight at 4° C., followed by a secondary antibody for 2 h. The optical density of the target strip (p-PI3K, t-PI3K, p-AKT, t-AKT, p-GSK3β and t-GSK3β) was analyzed by using a gel image processing system. Data were analysed using a one-way ANOVA with post-hoc Bonferroni tests. The results are illustrated in FIGS. 5 to 11.
For orientation: In western blotting, separated proteins are transferred to a membrane and probed.

Where no end group is shown, it is not given here. [ ]: non-standard residue; d: D form. Aib = CC(C)(N)C(=O)O

In the case of “YXEGTFTSDYSIYLDKQAAXEFVNWLLAGGPSSGAPPPSKRRQRRKKRGY-NH2 (Y[Aib]EGTFTSDYSIYLDKQAA[Aib]EFVNWLLAGGPSSGAPPPSKRRQRRKKRGY-NH2) [DA5, No. 12; X=aminoisobutyric acid]”, in the experiment on C57BL/6 mice given MPTP, the “impairment of motor skills (rotarod endurance time)” value is reported as “protect mice from an impairment of motor skills induced by MPTP”. Besides, the “neurofibrillary tangles (immunofluorescence staining of p-tau protein)” value in the experiment on APP/PS1 mice is given as “reduces neurofibrillary tangles”. The “activation of GSK3β / PI3K/AKT signalling (western blot, hippocampus)” value in experiment [1] was “prevents excessive activation of GSKβ by upregulating P13/AKT signalling”.
